Values after ≈ are worked out from the molar mass of the structure shown.
What was measured:
Staphylococcus aureus [1] = assay: Antibacterial activity against Staphylococcus aureus ATCC 6538 after 24 hrs by microdilution method; type: functional; conditions: ATCC 6538, 24 h
Bacillus cereus [2] = assay: Antibacterial activity against Bacillus cereus clinical isolate after 24 hrs by microdilution method; type: functional
Micrococcus flavus [3] = assay: Antibacterial activity against Micrococcus flavus ATCC 10240 after 24 hrs by microdilution method; type: functional; conditions: ATCC 10240, 24 h
Listeria monocytogenes [4] = assay: Antibacterial activity against Listeria monocytogenes NCTC 7973 after 24 hrs by microdilution method; type: functional; conditions: NCTC 7973, 24 h
Pseudomonas aeruginosa [5] = assay: Antibacterial activity against Pseudomonas aeruginosa ATCC 27853 after 24 hrs by microdilution method; type: functional; conditions: ATCC 27853, 24 h
Salmonella typhimurium [6] = assay: Antibacterial activity against Salmonella Typhimurium ATCC 13311 after 24 hrs by microdilution method; type: functional, Salmonella enterica subsp. enterica serovar Typhimurium; conditions: Salmonella enterica, ATCC 13311, 24 h
Escherichia coli [7] = assay: Antibacterial activity against Escherichia coli ATCC 35210 after 24 hrs by microdilution method; type: functional; conditions: ATCC 35210, 24 h
Enterococcus faecalis [8] = assay: Antibacterial activity against Enterococcus faecalis isolate obtained from human after 24 hrs by microdilution method; type: functional
Staphylococcus aureus [9] = assay: Bactericidal activity against Staphylococcus aureus ATCC 6538 after 24 hrs; type: functional; conditions: ATCC 6538, 24 h
Bacillus cereus [10] = assay: Bactericidal activity against Bacillus cereus clinical isolate after 24 hrs; type: functional
Micrococcus flavus [11] = assay: Bactericidal activity against Micrococcus flavus ATCC 10240 after 24 hrs; type: functional; conditions: ATCC 10240, 24 h
Listeria monocytogenes [12] = assay: Bactericidal activity against Listeria monocytogenes NCTC 7973 after 24 hrs; type: functional; conditions: NCTC 7973, 24 h
Pseudomonas aeruginosa [13] = assay: Bactericidal activity against Pseudomonas aeruginosa ATCC 27853 after 24 hrs; type: functional; conditions: ATCC 27853, 24 h
Salmonella typhimurium [14] = assay: Bactericidal activity against Salmonella Typhimurium ATCC 13311 after 24 hrs; type: functional, Salmonella enterica subsp. enterica serovar Typhimurium; conditions: Salmonella enterica, ATCC 13311, 24 h
Escherichia coli [15] = assay: Bactericidal activity against Escherichia coli ATCC 35210 after 24 hrs; type: functional; conditions: ATCC 35210, 24 h
Enterococcus faecalis [16] = assay: Bactericidal activity against Enterococcus faecalis isolate obtained from human after 24 hrs; type: functional
Aspergillus ochraceus [17] = assay: Antifungal activity against Aspergillus ochraceus ATCC 12066 after 72 hrs by serial dilution method; type: functional; conditions: ATCC 12066, 72 h
Aspergillus versicolor [18] = assay: Antifungal activity against Aspergillus versicolor ATCC 11730 after 72 hrs by serial dilution method; type: functional; conditions: ATCC 11730, 72 h
Aspergillus niger [19] = assay: Antifungal activity against Aspergillus niger ATCC 6275 after 72 hrs by serial dilution method; type: functional; conditions: ATCC 6275, 72 h
Aspergillus fumigatus [20] = assay: Antifungal activity against Aspergillus fumigatus plant isolate after 72 hrs by serial dilution method; type: functional
Trichoderma viride [21] = assay: Antifungal activity against Trichoderma viride IAM 5061 after 72 hrs by serial dilution method; type: functional; conditions: IAM 5061, 72 h
Penicillium ochrochloron [22] = assay: Antifungal activity against Penicillium ochrochloron ATCC 9112 after 72 hrs by serial dilution method; type: functional; conditions: ATCC 9112, 72 h
Talaromyces funiculosus [23] = assay: Antifungal activity against Penicillium funiculosum ATCC 36839 after 72 hrs by serial dilution method; type: functional; conditions: ATCC 36839, 72 h
[24] = Antifungal activity against Fusarium sporotrichioides IMT 496 after 72 hrs by serial dilution method; type: functional
Aspergillus ochraceus [25] = assay: Fungicidal activity against Aspergillus ochraceus ATCC 12066 after 72 hrs; type: functional; conditions: ATCC 12066, 72 h
Aspergillus versicolor [26] = assay: Fungicidal activity against Aspergillus versicolor ATCC 11730 after 72 hrs; type: functional; conditions: ATCC 11730, 72 h
Aspergillus niger [27] = assay: Fungicidal activity against Aspergillus niger ATCC 6275 after 72 hrs; type: functional; conditions: ATCC 6275, 72 h
Aspergillus fumigatus [28] = assay: Fungicidal activity against Aspergillus fumigatus plant isolate after 72 hrs; type: functional
Trichoderma viride [29] = assay: Fungicidal activity against Trichoderma viride IAM 5061 after 72 hrs; type: functional; conditions: IAM 5061, 72 h
Penicillium ochrochloron [30] = assay: Fungicidal activity against Penicillium ochrochloron ATCC 9112 after 72 hrs; type: functional; conditions: ATCC 9112, 72 h
Talaromyces funiculosus [31] = assay: Fungicidal activity against Penicillium funiculosum ATCC 36839 after 72 hrs; type: functional; conditions: ATCC 36839, 72 h
[32] = system: Fusarium sporotrichioides; assay: Fungicidal activity against Fusarium sporotrichioides IMT 496 after 72 hrs; type: functional; conditions: IMT 496, 72 h
Micrococcus flavus [33] = assay: Ratio of Ampicillin MIC to compound MIC for Micrococcus flavus ATCC 10240 after 24 hrs; type: functional
Enterococcus faecalis [34] = assay: Ratio of Ampicillin MIC to compound MIC for Enterococcus faecalis after 24 hrs; type: functional

SMILES	MIC (Staphylococcus aureus [1])	MIC (Bacillus cereus [2])	MIC (Micrococcus flavus [3])	MIC (Listeria monocytogenes [4])	MIC (Pseudomonas aeruginosa [5])	MIC (Salmonella typhimurium [6])	MIC (Escherichia coli [7])	MIC (Enterococcus faecalis [8])	MBC (Staphylococcus aureus [9])	MBC (Bacillus cereus [10])	MBC (Micrococcus flavus [11])	MBC (Listeria monocytogenes [12])	MBC (Pseudomonas aeruginosa [13])	MBC (Salmonella typhimurium [14])	MBC (Escherichia coli [15])	MBC (Enterococcus faecalis [16])	MIC (Aspergillus ochraceus [17])	MIC (Aspergillus versicolor [18])	MIC (Aspergillus niger [19])	MIC (Aspergillus fumigatus [20])	other results
CNc1nc(C)c(C(=O)/C=C/c2ccc(Cl)cc2)s1	513 µM (≈ 150 µg/mL)	342 µM (≈ 100 µg/mL)	85.4 µM (≈ 25 µg/mL)	342 µM (≈ 100 µg/mL)	256 µM (≈ 75.1 µg/mL)	290 µM (≈ 85.1 µg/mL)	290 µM (≈ 85.1 µg/mL)	171 µM (≈ 50.1 µg/mL)	684 µM (≈ 200 µg/mL)	513 µM (≈ 150 µg/mL)	342 µM (≈ 100 µg/mL)	513 µM (≈ 150 µg/mL)	342 µM (≈ 100 µg/mL)	342 µM (≈ 100 µg/mL)	342 µM (≈ 100 µg/mL)	342 µM (≈ 100 µg/mL)	340 µM (≈ 99.5 µg/mL)	170 µM (≈ 49.8 µg/mL)	170 µM (≈ 49.8 µg/mL)	170 µM (≈ 49.8 µg/mL)	MIC (Trichoderma viride [21]): 170 µM (≈ 49.8 µg/mL); MIC (Penicillium ochrochloron [22]): 340 µM (≈ 99.5 µg/mL); MIC (Talaromyces funiculosus [23]): 170 µM (≈ 49.8 µg/mL); MIC (10'-2 umol/ml) [24]: 17; MFC (Aspergillus ochraceus [25]): 513 µM (≈ 150 µg/mL); MFC (Aspergillus versicolor [26]): 340 µM (≈ 99.5 µg/mL); MFC (Aspergillus niger [27]): 340 µM (≈ 99.5 µg/mL); MFC (Aspergillus fumigatus [28]): 340 µM (≈ 99.5 µg/mL); MFC (Trichoderma viride [29]): 340 µM (≈ 99.5 µg/mL); MFC (Penicillium ochrochloron [30]): 513 µM (≈ 150 µg/mL); MFC (Talaromyces funiculosus [31]): 340 µM (≈ 99.5 µg/mL); MFC [32]: 170 µM (≈ 49.8 µg/mL); Ratio (Micrococcus flavus [33]): 3
CNc1nc(C)c(C(=O)/C=C/c2ccc(OC)cc2)s1	290 µM (≈ 83.8 µg/mL)	290 µM (≈ 83.8 µg/mL)	85.4 µM (≈ 24.6 µg/mL)	342 µM (≈ 98.6 µg/mL)	342 µM (≈ 98.6 µg/mL)	342 µM (≈ 98.6 µg/mL)	342 µM (≈ 98.6 µg/mL)	171 µM (≈ 49.3 µg/mL)	342 µM (≈ 98.6 µg/mL)	342 µM (≈ 98.6 µg/mL)	171 µM (≈ 49.3 µg/mL)	513 µM (≈ 148 µg/mL)	513 µM (≈ 148 µg/mL)	513 µM (≈ 148 µg/mL)	513 µM (≈ 148 µg/mL)	171 µM (≈ 49.3 µg/mL)	340 µM (≈ 98 µg/mL)	170 µM (≈ 49 µg/mL)	340 µM (≈ 98 µg/mL)	170 µM (≈ 49 µg/mL)	MIC (Trichoderma viride [21]): 170 µM (≈ 49 µg/mL); MIC (Penicillium ochrochloron [22]): 340 µM (≈ 98 µg/mL); MIC (Talaromyces funiculosus [23]): 340 µM (≈ 98 µg/mL); MIC (10'-2 umol/ml) [24]: 34; MFC (Aspergillus ochraceus [25]): 513 µM (≈ 148 µg/mL); MFC (Aspergillus versicolor [26]): 513 µM (≈ 148 µg/mL); MFC (Aspergillus niger [27]): 683 µM (≈ 197 µg/mL); MFC (Aspergillus fumigatus [28]): 513 µM (≈ 148 µg/mL); MFC (Trichoderma viride [29]): 513 µM (≈ 148 µg/mL); MFC (Penicillium ochrochloron [30]): 513 µM (≈ 148 µg/mL); MFC (Talaromyces funiculosus [31]): 513 µM (≈ 148 µg/mL); MFC [32]: 513 µM (≈ 148 µg/mL); Ratio (Micrococcus flavus [33]): 3
CNc1nc(C)c(C(=O)/C=C/c2ccccc2Cl)s1	306 µM (≈ 89.5 µg/mL)	229 µM (≈ 67.1 µg/mL)	229 µM (≈ 67.1 µg/mL)	306 µM (≈ 89.5 µg/mL)	260 µM (≈ 76.1 µg/mL)	306 µM (≈ 89.5 µg/mL)	229 µM (≈ 67.1 µg/mL)	76.4 µM (≈ 22.4 µg/mL)	459 µM (≈ 134 µg/mL)	306 µM (≈ 89.5 µg/mL)	260 µM (≈ 76.1 µg/mL)	459 µM (≈ 134 µg/mL)	306 µM (≈ 89.5 µg/mL)	459 µM (≈ 134 µg/mL)	306 µM (≈ 89.5 µg/mL)	153 µM (≈ 44.8 µg/mL)	306 µM (≈ 89.5 µg/mL)	153 µM (≈ 44.8 µg/mL)	306 µM (≈ 89.5 µg/mL)	306 µM (≈ 89.5 µg/mL)	MIC (Trichoderma viride [21]): 153 µM (≈ 44.8 µg/mL); MIC (Penicillium ochrochloron [22]): 306 µM (≈ 89.5 µg/mL); MIC (Talaromyces funiculosus [23]): 306 µM (≈ 89.5 µg/mL); MIC (10'-2 umol/ml) [24]: 15.3; MFC (Aspergillus ochraceus [25]): 459 µM (≈ 134 µg/mL); MFC (Aspergillus versicolor [26]): 459 µM (≈ 134 µg/mL); MFC (Aspergillus niger [27]): 612 µM (≈ 179 µg/mL); MFC (Aspergillus fumigatus [28]): 612 µM (≈ 179 µg/mL); MFC (Trichoderma viride [29]): 306 µM (≈ 89.5 µg/mL); MFC (Penicillium ochrochloron [30]): 459 µM (≈ 134 µg/mL); MFC (Talaromyces funiculosus [31]): 612 µM (≈ 179 µg/mL); MFC [32]: 459 µM (≈ 134 µg/mL); Ratio (Enterococcus faecalis [34]): 3
